Holding throughout (assay type): in vivo
Data set [1] concerns Sclerotinia sclerotiorum. In words: Seed treatment test, control efficacy against ascospore infection in soybean, greenhouse (Example A, Tests 1-6). The conditions noted are these: for pest or weed control at 25 g/100 kg seed: soybean seed treatment 25 g a.i./100 kg seed; for pest or weed control at 50 g/100 kg seed: soybean seed treatment 50 g a.i./100 kg seed; for pest or weed control at 70 g/100 kg seed / pest or weed control at 140 g/100 kg seed / pest or weed control at 35 g/100 kg seed: read-out: Sclerotinia sclerotiorum Control efficacy %; for pest or weed control at 10 g/100 kg seed: soybean seed treatment 10 g a.i./100 kg seed. The procedure: (§1) The test is performed under greenhouse conditions.
(§2) Soybean seeds, treated to the desired dosages with the active compound solved in N-methyl-2-pyrrolidon and diluted with water, were sown in 6×6 cm pots (one seed per pot) filled with 1:1 mixture of steamed loam soil and quartz sand.
(§3) The plants were grown at 24° C. and 90% relative humidity in a greenhouse. Ascospores of Sclerotinia sclerotiorum were collected from 3 month old asci. Whole aerial surface of 19-25-day-old seedlings were sprayed with water suspension of the ascospores. The plants were kept for 48-96 hours in the dark at 24° C. and a relative humidity of 99%.
(§4) Assessment consisted of evaluation of infected area of the unifoliate leaves. Zero % means infection which corresponds to that of the untreated check, while an efficacy of 100% means that no infection was observed.
The control efficacy is based on % infected leaf area.
Moreover, the tests were performed with different batches of plants.

In data set [2] the test system is soybean plants. The data set can be described thus: Damage on plants after seed treatment, relative growth inhibition in non-inoculated plants (Example A, Tests 1-6). The protocol: as §1, §2, §3
In data set [3] the test system is Sclerotinia sclerotiorum. The data set can be described thus: Spray test (dwarf beans), preventive control efficacy (Example B, Test 7). Conditions: spray treatment 100 mg ai/Liter, dwarf bean, 10 days old plants, incubation 3 days. The protocol:
(§5) Solvent: 24.5 parts by weight of acetone • 24.5 parts by weight of dimethylacetamide
(§6) Emulsifier: 1 part by weight of alkylaryl polyglycol ether
(§7) To produce a suitable preparation of active compound, 1 part by weight of active compound is mixed with the stated amounts of solvent and emulsifier, and the concentrate is diluted with water to the desired concentration.
(§8) To test for preventive activity, unifoliate leaves of 10 day-old plants are sprayed with the preparation of active compound. After the spray coating has dried on, 2 small pieces of agar covered with growth of Sclerotinia sclerotiorum are placed on each leaf. The inoculated plants are placed in a darkened chamber at approximately 20° C. and a relative atmospheric humidity of 100%.
3 days after the inoculation, the size of the lesions on the leaves is evaluated. 0% means an efficacy which corresponds to that of the untreated control, while an efficacy of 100% means that no disease is observed.

Data set [4] deals with soybean plants. In words: Damage on plants after seed treatment, emergence inhibition (Example B, Test 8). Conditions: soybean seed treatment 50 g a.i./100 kg seed. The procedure:
as §2
(§9) The plants were grown at 24° C. and 90% relative humidity in a greenhouse. Ascospores of Sclerotinia sclerotiorum were collected from 3 month old asci. Whole aerial surface of 27 day-old seedlings were sprayed with water suspension of the ascospores. The plants were kept for 72 hours in the dark at 24° C. and a relative humidity of 99%.

The test system of data set [5] is Sclerotinia sclerotiorum. The data set can be described thus: Seed treatment test (soybean) with current standards, control efficacy (Example B, Test 8). Conditions: soybean seed treatment 50 g a.i./100 kg seed, incubation 3 days, inoculation 27 days after sowing. The protocol: as §2, §9, §4
For the next data set, the system named is dwarf beans. The data set can be described thus: Damage on plants in spray test (Example B, Test 7). Conditions: spray treatment 100 mg ai/Liter, dwarf bean. The protocol:
as §5, §6, §7, §8

[6] abbreviates: Sclerotinia sclerotiorum, 72 h, Test 1, incubation 3 days, inoculation 19 days after sowing.
Setting [7] is: Test 1, soybean seed treatment 25 g a.i./100 kg seed.
[8] abbreviates: Test 1, soybean seed treatment 50 g a.i./100 kg seed.
The mark [9] stands for this setting: Sclerotinia sclerotiorum, 96 h, Test 4, incubation 4 days, inoculation 25 days after sowing.
The mark [10] stands for this setting: Sclerotinia sclerotiorum, 48 h, Test 3, incubation 2 days, inoculation 20 days after sowing.
Where [11] appears, read: Sclerotinia sclerotiorum, 72 h, Test 6, incubation 3 days, inoculation 22 days after sowing.
Where [12] appears, read: Test 3, soybean seed treatment 70 g a.i./100 kg seed.
Setting [13] is: Test 6, soybean seed treatment 70 g a.i./100 kg seed.
[14] abbreviates: Sclerotinia sclerotiorum, 48 h, Test 5, incubation 2 days, inoculation 21 days after sowing.
The mark [15] stands for this setting: Example A, soybean seed treatment.
The mark [16] stands for this setting: Sclerotinia sclerotiorum, 48 h, Test 3, soybean seed treatment 70 g a.i./100 kg seed, incubation 2 days, inoculation 20 days after sowing.
[17] abbreviates: Sclerotinia sclerotiorum, 48 h, Test 3, soybean seed treatment 140 g a.i./100 kg seed, incubation 2 days, inoculation 20 days after sowing.
Setting [18] is: Sclerotinia sclerotiorum, 72 h, Test 6, soybean seed treatment 70 g a.i./100 kg seed, incubation 3 days, inoculation 22 days after sowing.
Setting [19] is: Sclerotinia sclerotiorum, 72 h, Test 6, soybean seed treatment 140 g a.i./100 kg seed, incubation 3 days, inoculation 22 days after sowing.
Setting [20] is: Test 6, soybean seed treatment 140 g a.i./100 kg seed.

From US20190261630A1, “USE OF PYRAZIFLUMID FOR CONTROLLING SCLEROTINIA SPP IN SEED TREATMENT APPLICATIONS” (Bayer CropScience Aktiengesellschaft, priority 2016, published 2019) come the findings set out here.

Where two headings read alike, the source gives them in different places.

The compound `CC(C)ON=C(CNC(=O)c1ccccc1C(F)(F)F)c1ncc(Cl)cc1Cl` had a pest or weed control at 25 g/100 kg seed in the data set on Sclerotinia sclerotiorum [1] (setting [6]) of 5%. In the data set with Sclerotinia sclerotiorum [1] (setting [6]), this compound yielded a pest or weed control at 50 g/100 kg seed of 53%. The “Damage on plants (relative growth inhibition in non-inoculated plants compared to untreated plants: in %)” value with soybean plants [2] (setting [7]) and in the data set on soybean plants [2] (setting [8]) was 0% in each case.

Regarding `Cc1nc2c(F)c(F)ccc2cc1Oc1cccc(F)c1C(C)(C)O`, in the data set on Sclerotinia sclerotiorum [1] (Sclerotinia sclerotiorum, 96 h), the pest or weed control at 70 g/100 kg seed is 0% and the pest or weed control at 140 g/100 kg seed stood at 99%.

The compound `O=S(=O)(Nc1ncc(C(F)(F)F)cc1Cl)c1ccccc1Cl` had a pest or weed control at 10 g/100 kg seed in the data set on Sclerotinia sclerotiorum [1] (setting [9]) of 73%. Moreover, the pest or weed control at 50 g/100 kg seed in the data set with Sclerotinia sclerotiorum [1] (setting [9]) was found to be 70%. Also, the “Damage on plants (relative growth inhibition in non-inoculated plants compared to untreated plants: in %)” value in the data set on soybean plants [2] (Test 4, soybean seed treatment 10 g a.i./100 kg seed) was determined as 17%; with soybean plants [2] (Test 4, soybean seed treatment 50 g a.i./100 kg seed), 8%.

For the compound `O=c1c2cc(F)ccc2nc(-n2cncn2)n1-c1ccc(Cl)cc1Cl` [Fluquinconazole], the values for the pest or weed control at 25 g/100 kg seed in the data set on Sclerotinia sclerotiorum [1] (setting [10]) and with Sclerotinia sclerotiorum [1] (setting [11]) were 83% and 0%, respectively. The pest or weed control at 50 g/100 kg seed was 86% in the data set with Sclerotinia sclerotiorum [1] (setting [10]) and 2% in the data set on Sclerotinia sclerotiorum [1] (setting [11]). The “Damage on plants (relative growth inhibition in non-inoculated plants compared to untreated plants: in %)” value in the data set on soybean plants [2] (Test 3, soybean seed treatment 25 g a.i./100 kg seed) worked out at 0%; in the data set on soybean plants [2] (Test 3, soybean seed treatment 50 g a.i./100 kg seed), 0%; with soybean plants [2] (Test 6, soybean seed treatment 25 g a.i./100 kg seed), 0%; with soybean plants [2] (Test 6, soybean seed treatment 50 g a.i./100 kg seed) it was 0%.

Consider `N#Cc1ccccc1NC(=O)c1snc(Cl)c1Cl` [Isotianil], for which the pest or weed control at 35 g/100 kg seed in the data set with Sclerotinia sclerotiorum [1] (Sclerotinia sclerotiorum, 48 h) came out at 46%; in the data set on Sclerotinia sclerotiorum [1] (Sclerotinia sclerotiorum, 72 h), 15%. Besides, the pest or weed control at 70 g/100 kg seed in the data set on Sclerotinia sclerotiorum [1] (Sclerotinia sclerotiorum, 48 h) is 65%; in the data set with Sclerotinia sclerotiorum [1] (Sclerotinia sclerotiorum, 72 h), 18%. Also, the “Damage on plants (relative growth inhibition in non-inoculated plants compared to untreated plants: in %)” value in the data set with soybean plants [2] (Test 3, soybean seed treatment 35 g a.i./100 kg seed) was 11%; with soybean plants [2] (setting [12]), 0%; in the data set with soybean plants [2] (Test 6, soybean seed treatment 35 g a.i./100 kg seed) it was 0%; in the data set on soybean plants [2] (setting [13]), 0%.

Take `CC(O)(Cn1cncn1)c1ccc(Oc2ccc(Cl)cc2)cc1C(F)(F)F` (centres unmarked) [Mefentrifluconazole]: in the data set on Sclerotinia sclerotiorum [1] (setting [14]), the pest or weed control at 10 g/100 kg seed stood at 90% and the pest or weed control at 25 g/100 kg seed was 84%. Besides, the “Damage on plants (relative growth inhibition in non-inoculated plants compared to untreated plants: in %)” value in the data set with soybean plants [2] (Test 5, soybean seed treatment 10 g a.i./100 kg seed) is on record as 0%. Further, in the data set with soybean plants [2] (Test 5, soybean seed treatment 25 g a.i./100 kg seed), the “Damage on plants (relative growth inhibition in non-inoculated plants compared to untreated plants: in %)” value is reported as 10%.

Turning to `O=C(Nc1ccccc1-c1ccc(F)c(F)c1)c1nccnc1C(F)(F)F` [Pyraziflumid], in the data set with Sclerotinia sclerotiorum [1] (setting [15]), the “control efficacy against ascospore infection of Sclerotinia Sclerotiorum (in words)” value is “excellent control efficacy”. Also, the pest or weed control at 70 g/100 kg seed in the data set with Sclerotinia sclerotiorum [1] (setting [16]) turned out to be 87%; in the data set with Sclerotinia sclerotiorum [1] (setting [18]) it was 36%; in the data set on Sclerotinia sclerotiorum [1] (Sclerotinia sclerotiorum, 96 h, Test 2, soybean seed treatment 70 g a.i./100 kg seed, incubation 4 days, inoculation 22 days after sowing), 58%; in the data set on Sclerotinia sclerotiorum [1] (Sclerotinia sclerotiorum, 96 h, Test 4, soybean seed treatment 70 g a.i./100 kg seed, incubation 4 days, inoculation 25 days after sowing), 80%. In addition, the pest or weed control at 140 g/100 kg seed in the data set with Sclerotinia sclerotiorum [1] (setting [17]) was 95%; in the data set on Sclerotinia sclerotiorum [1] (setting [19]), 33%; in the data set on Sclerotinia sclerotiorum [1] (Sclerotinia sclerotiorum, 96 h, Test 2, soybean seed treatment 140 g a.i./100 kg seed, incubation 4 days, inoculation 22 days after sowing) it was 86%; in the data set with Sclerotinia sclerotiorum [1] (Sclerotinia sclerotiorum, 96 h, Test 4, soybean seed treatment 140 g a.i./100 kg seed, incubation 4 days, inoculation 25 days after sowing), 90%. The compound further gave a pest or weed control at 75 g/100 kg seed in the data set with Sclerotinia sclerotiorum [1] (Sclerotinia sclerotiorum, 48 h, Test 5, soybean seed treatment 75 g a.i./100 kg seed, incubation 2 days, inoculation 21 days after sowing) of 98%. Also, the pest or weed control at 25 g/100 kg seed in the data set with Sclerotinia sclerotiorum [1] (setting [6]) worked out at 96%. The pest or weed control at 50 g/100 kg seed with Sclerotinia sclerotiorum [1] (setting [6]) stood at 95%. In addition, the “damage on soybean plants (in words)” value in the data set with soybean plants [2] (setting [15]) is reported as “without giving any damage”. The “Damage on plants (relative growth inhibition in non-inoculated plants compared to untreated plants: in %)” value was 0% with soybean plants [2] (setting [7]); 0% in the data set with soybean plants [2] (setting [8]); 0% in the data set with soybean plants [2] (Test 2, soybean seed treatment 70 g a.i./100 kg seed); 0% in the data set with soybean plants [2] (Test 2, soybean seed treatment 140 g a.i./100 kg seed); 0% in the data set on soybean plants [2] (setting [12]); 0% in the data set on soybean plants [2] (Test 3, soybean seed treatment 140 g a.i./100 kg seed). Further, the “Damage on plants (relative growth inhibition in non-inoculated plants compared to untreated plants: in %)” value with soybean plants [2] (Test 4, soybean seed treatment 70 g a.i./100 kg seed) came out at 0%; in the data set on soybean plants [2] (Test 4, soybean seed treatment 140 g a.i./100 kg seed) it was 0%; in the data set on soybean plants [2] (Test 5, soybean seed treatment 75 g a.i./100 kg seed) it was 0%; with soybean plants [2] (setting [13]) it was 0%; in the data set on soybean plants [2] (setting [20]) it was 30%.

As for `CC1(C)N=C(c2cnc3ccccc3c2)c2ccccc2C1(F)F` [Quinofumelin], in the data set on Sclerotinia sclerotiorum [1] (setting [18]), the pest or weed control at 70 g/100 kg seed stood at 16%. Moreover, in the data set on Sclerotinia sclerotiorum [1] (setting [19]), the pest or weed control at 140 g/100 kg seed amounted to 1%. The “Damage on plants (relative growth inhibition in non-inoculated plants compared to untreated plants: in %)” value in the data set on soybean plants [2] (setting [13]) and in the data set on soybean plants [2] (setting [20]) was 0% in each case.

For the compound `CC1(C)N=C(c2cnc3ccccc3c2)c2ccccc2C1(F)F` [drawing 23], the pest or weed control at 70 g/100 kg seed in the data set on Sclerotinia sclerotiorum [1] (setting [16]) is 72%. The pest or weed control at 140 g/100 kg seed with Sclerotinia sclerotiorum [1] (setting [17]) was 96%.

As to `O=C(NCCc1ncc(C(F)(F)F)cc1Cl)c1ccccc1C(F)(F)F` [fluopyram], the entries for the “Sclerotinia sclerotiorum Control efficacy %” value in the data set with Sclerotinia sclerotiorum [3] and in the data set on Sclerotinia sclerotiorum [5] were 100% and 68%, respectively. Also, in the data set with soybean plants [4], the “Damage on plants (emergence inhibition in %)” value came to 25%. For the same compound, the “Damage on plants (in %)” value in the data set on dwarf beans was 0%.

Take `CON(C(=O)c1cn(C)nc1C(F)F)C(C)Cc1c(Cl)cc(Cl)cc1Cl` (centres unmarked) [pydiflumetofen]: the “Sclerotinia sclerotiorum Control efficacy %” value with Sclerotinia sclerotiorum [3] was found to be 100%; in the data set with Sclerotinia sclerotiorum [5] it was 0%. In addition, in the data set with soybean plants [4], the “Damage on plants (emergence inhibition in %)” value turned out to be 0%. Moreover, the “Damage on plants (in %)” value in the data set on dwarf beans was 0%.
